Drawing on patent US7705043B2, “Substituted aminodicarboxylic acid derivatives having pharmaceutical properties” (Bayer Schering Pharma Aktiengesellschaft, priority 2001, dated 2010), this text covers IC50 and melting point for 7 compounds.

In one data set the test system is arteria saphena rings. The data set can be described thus: Vasorelaxant effect in vitro (phenylephrine-contracted rings of rabbit arteria saphena). The data set is classed as cell-based. As to conditions: Oryctolagus cuniculus, contraction generated by phenylephrine, concentration reducing height of control contraction by 50%. How it is done: Vasorelaxant Effect in Vitro
Rabbits are anesthetized or killed by intravenous injection of thiopental sodium (about 50 mg/kg) and exsanguinated. The arteria saphena is removed and divided into rings 3 mm wide. The individual rings are in each case mounted on a pair of hooks of triangular shape, open at the ends and made of special wire (Remanium®) having a diameter of 0.3 mm. Under tension, each ring is introduced into a 5 ml organ bath containing carbogen-gassed Krebs-Henseleit solution at 37° C. with the following composition (mM): NaCl: 119; KCl: 4.8; CaCl2×2H2O: 1; MgSO4×7H2O: 1.4; KH2PO4: 1.2; NaHCO3: 25; glucose: 10; bovine serum albumin: 0.001%. The force of contraction is detected with Statham UC2 cells, amplified and digitized via A/D converters (DAS-1802 HC, Keithley Instruments, Munich) and recorded in parallel on chart recorders. Contractions are generated by adding phenylephrine.
After several (generally 4) control cycles, the substance to be investigated is added in each further run in increasing dosage in each case, and the height of the contraction reached under the influence of the test substance is compared with the height of the contraction reached in the last preceding run. The concentration necessary to reduce the height of the control value by 50% (IC50) is calculated from this. The standard application volume is 5 μl. The DMSO content in the bath solution corresponds to 0.1%.

The structures appear in SMILES notation. Bounds are passed on as bounds.

One may read the IC50 as the concentration needed to halve the response being measured. Consider `Cc1sc(C)c(COc2ccc(-c3ccc(Cl)cc3Cl)cc2)c1CCN(CCCCC(=O)O)Cc1ccc(C(=O)O)cc1` [Example 3, 4-({(4-Carboxybutyl)[2-(4-{[(2′,4′-dichloro-1,1′-biphenyl-4-yl)oxy]methyl}-2,5-dimethyl-3-thienyl)ethyl]amino}methyl)benzoic acid], for which, in the data set on arteria saphena rings, the IC50 worked out at 2 nM.
In the data set on arteria saphena rings, `Cc1sc(C)c(COc2ccc(-c3ccc(C(F)(F)F)cc3)cc2)c1CCN(CCCCC(=O)O)Cc1ccc(C(=O)O)cc1` [Example 4] came in with an IC50 of 22 nM.
Regarding `COc1ccc(-c2ccc(OCc3c(C)sc(C)c3CCN(CCCCC(=O)O)Cc3ccc(C(=O)O)cc3)cc2)cc1` [Example 5], half-maximal inhibition in the data set with arteria saphena rings (IC50) was put at 7 nM.
`Cc1sc(C)c(COc2ccc(-c3ccc(C(C)(C)C)cc3)cc2)c1CCN(CCCCC(=O)O)Cc1ccc(C(=O)O)cc1` [Example 9] registered a 50% inhibitory concentration (IC50) with arteria saphena rings of 61 nM.
The same measure, in the same setting: as for `COc1cccc(-c2ccc(OCc3c(C)sc(C)c3CCN(CCCCC(=O)O)Cc3ccc(C(=O)O)cc3)cc2)c1` [Example 10], the figure is 51 nM.
As a reminder, the melting point is the temperature of the solid-liquid transition. In the case of `COc1ccc(-c2ccc(COc3cc4c(cc3CCN(CCCCC(=O)O)Cc3ccc(C(=O)O)cc3)CCCC4)cc2)cc1` [Example 13, 4-{[(4-Carboxybutyl)(2-{3-[(4′-methoxy-1,1′-biphenyl-4-yl)methoxy]-5,6,7,8-tetrahydro-2-naphthyl}ethyl)amino]methyl}benzoic acid], the melting point is > 240 °C. The compound also registered a half-maximal inhibitory concentration (IC50) with arteria saphena rings of 94 nM.
As to `Cc1ccc(OCc2ccc(-c3ccc(C(F)(F)F)cc3)cc2)c(CCN(CCCCC(=O)O)Cc2ccc(C(=O)O)cc2)n1` [Example 16], the IC50 in the data set with arteria saphena rings was 125 nM.
